Like-named read-outs stand apart in the source and are kept apart here.
T1: DeUB-PEPC (in vitro deubiquitinated p107 homotetrameric PEPC of germinating sorghum seeds; CP21) (Sorghum bicolor, UniProt P29195)
T1 construct: p107 homotetramer; not phosphorylated at Ser7
T1 sequence (P29195 1-960): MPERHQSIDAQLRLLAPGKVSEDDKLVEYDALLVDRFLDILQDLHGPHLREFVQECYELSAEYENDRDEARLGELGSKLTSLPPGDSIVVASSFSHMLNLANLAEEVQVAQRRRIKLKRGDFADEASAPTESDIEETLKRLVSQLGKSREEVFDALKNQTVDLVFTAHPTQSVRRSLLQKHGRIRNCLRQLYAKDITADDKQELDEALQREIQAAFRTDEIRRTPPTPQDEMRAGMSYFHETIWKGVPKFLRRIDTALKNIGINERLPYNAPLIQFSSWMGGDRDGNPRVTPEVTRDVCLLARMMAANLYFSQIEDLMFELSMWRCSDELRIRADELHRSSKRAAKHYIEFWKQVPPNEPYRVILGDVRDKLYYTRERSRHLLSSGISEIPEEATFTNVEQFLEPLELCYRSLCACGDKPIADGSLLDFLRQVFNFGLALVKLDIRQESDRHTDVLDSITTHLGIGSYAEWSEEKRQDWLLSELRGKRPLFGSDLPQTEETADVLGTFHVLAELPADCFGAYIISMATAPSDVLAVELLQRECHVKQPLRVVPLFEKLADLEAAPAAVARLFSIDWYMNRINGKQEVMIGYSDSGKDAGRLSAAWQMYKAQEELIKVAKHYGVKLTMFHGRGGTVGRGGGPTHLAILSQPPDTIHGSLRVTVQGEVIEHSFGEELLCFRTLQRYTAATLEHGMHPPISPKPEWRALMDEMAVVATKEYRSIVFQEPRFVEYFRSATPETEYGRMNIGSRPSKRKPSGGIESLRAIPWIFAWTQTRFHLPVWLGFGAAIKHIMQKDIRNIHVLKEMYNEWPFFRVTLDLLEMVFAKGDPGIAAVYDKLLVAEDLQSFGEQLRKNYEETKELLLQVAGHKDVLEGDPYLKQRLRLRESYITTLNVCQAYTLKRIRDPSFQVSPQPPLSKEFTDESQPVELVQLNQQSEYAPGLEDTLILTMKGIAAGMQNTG

T2: UB-PEPC (purified monoubiquitinated p110:p107 heterotetrameric PEPC of germinating sorghum seeds; CP21) (Sorghum bicolor, UniProt P29195)
T2 construct: native, purified from 48 h germinated seeds, untagged; intact N-terminus, not phosphorylated at Ser7; heterotetramer ~460 kDa of p110 and p107 in equivalent ratio; p110 = p107 monoubiquitinated at Lys624
T2 sequence (P29195 1-960): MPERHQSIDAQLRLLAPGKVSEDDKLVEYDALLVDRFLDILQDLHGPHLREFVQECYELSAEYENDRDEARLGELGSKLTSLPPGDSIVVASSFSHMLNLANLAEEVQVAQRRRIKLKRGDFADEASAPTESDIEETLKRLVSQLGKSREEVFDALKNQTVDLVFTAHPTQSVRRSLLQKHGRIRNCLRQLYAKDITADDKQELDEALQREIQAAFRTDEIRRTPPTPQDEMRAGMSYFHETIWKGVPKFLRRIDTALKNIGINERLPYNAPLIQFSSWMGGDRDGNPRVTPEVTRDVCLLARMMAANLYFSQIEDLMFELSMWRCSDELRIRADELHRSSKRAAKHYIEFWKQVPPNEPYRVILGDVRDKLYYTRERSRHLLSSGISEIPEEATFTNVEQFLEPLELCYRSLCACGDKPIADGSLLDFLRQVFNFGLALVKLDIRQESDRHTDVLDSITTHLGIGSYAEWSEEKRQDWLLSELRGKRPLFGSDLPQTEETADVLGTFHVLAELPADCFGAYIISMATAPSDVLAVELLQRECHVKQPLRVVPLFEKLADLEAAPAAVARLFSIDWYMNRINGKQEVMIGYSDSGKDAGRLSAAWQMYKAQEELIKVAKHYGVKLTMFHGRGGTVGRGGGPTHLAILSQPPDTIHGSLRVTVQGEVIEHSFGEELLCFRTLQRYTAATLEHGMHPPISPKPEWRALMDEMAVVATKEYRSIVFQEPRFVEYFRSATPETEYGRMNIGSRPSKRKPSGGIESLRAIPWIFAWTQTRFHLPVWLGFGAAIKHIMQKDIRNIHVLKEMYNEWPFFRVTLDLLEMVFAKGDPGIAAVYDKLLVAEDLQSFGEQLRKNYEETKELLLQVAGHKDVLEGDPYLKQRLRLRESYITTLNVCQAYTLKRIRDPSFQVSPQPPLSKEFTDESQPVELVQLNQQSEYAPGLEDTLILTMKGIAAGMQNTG


How the values were obtained:
[1] = target: T1, DeUB-PEPC (in vitro deubiquitinated p107 homotetrameric PEPC of germinating sorghum seeds; CP21); experiment: biochemical; set-up: PEPC activity of purified enzyme with 2 mM metabolite effector at subsaturating 0.1 mM PEP, relative to control; details: pH 7.3, 0.1 mM PEP; for remaining activity at 2000 µM: read-out: % of control remaining
Experimental: (§1) The impact of various metabolite effectors (2mM each) on the activity of the purified, monoubiquitinated heterotetrameric sorghum seed PEPC (UB-PEPC) versus the in vitro deubiquitinated homotetrameric enzyme (deUB-PEPC) was assessed using suboptimal assay conditions (0.1mM PEP, pH 7.3 and 8.0). With the exception of L-malate, monoubiquitination of germinating sorghum seed PEPC (CP21) exerted little to no influence in the response to the metabolites tested (Supplementary Table S2 at JXB online). […] In addition, the K m(PEP) value of UB-PEPC appeared to be slightly higher than that of deUB-PEPC, although the differences were not statistically significant (Table 1). Similarly, monoubiquitination of COS and harsh hakea Class-1 PEPCs is inhibitory, as it enhances sensitivity to allosteric inhibitors such as L-malate and L-aspartate, while interfering with the enzyme’s ability to bind PEP ([Uhrig et al., 2008]; [Shane et al., 2013]). Apparent K m and IC50 (concentration of inhibitor producing 50% inhibition) values were calculated using a computer kinetics program as previously described ([Tripodi et al., 2005]). All kinetic parameters are the means of three independent experiments and are reproducible to within ±15% (SE) of the mean value. Stock solutions of metabolites were made equimolar with MgCl2 and adjusted to pH 7.5.

[2] = target: T1, DeUB-PEPC (in vitro deubiquitinated p107 homotetrameric PEPC of germinating sorghum seeds; CP21); experiment: biochemical; set-up: PEPC activity with 2 mM metabolite at subsaturating 0.1 mM PEP, as per cent of control; details: pH 8.0, 0.1 mM PEP; for remaining activity at 2000 µM: read-out: % of control remaining
Experimental: as §1

[3] = target: T2, UB-PEPC (purified monoubiquitinated p110:p107 heterotetrameric PEPC of germinating sorghum seeds; CP21); experiment: biochemical; set-up: PEPC activity of purified enzyme with 2 mM metabolite effector at subsaturating 0.1 mM PEP, relative to control; details: pH 7.3, 0.1 mM PEP; read-out: % of control remaining
Experimental: as §1

[4] = target: T2, UB-PEPC (purified monoubiquitinated p110:p107 heterotetrameric PEPC of germinating sorghum seeds; CP21); experiment: biochemical; set-up: PEPC activity with 2 mM metabolite at subsaturating 0.1 mM PEP, as per cent of control; details: pH 8.0, 0.1 mM PEP; read-out: % of control remaining
Experimental: as §1

[5] = target: T1, DeUB-PEPC (in vitro deubiquitinated p107 homotetrameric PEPC of germinating sorghum seeds; CP21); experiment: spectrophotometric, NADH at […] nm, coupled with malate dehydrogenase; assay type: biochemical; details: read-out: pH 7.3 / DeUB-PEPC
[6] = target: p107, non-ubiquitinated 107 kDa plant-type PEPC (PTPC) subunit encoded by sorghum CP21 (Sorghum bicolor (endogenous in germinated seeds)) (UniProt P29195); experiment: SEC; Superdex-200 HR 16/60 gel filtration FPLC (calibrated column) of native PEPC purified from 48 h germinated sorghum seeds, in buffer E (50 mM HEPES-KOH pH 8.0, 5 mM MgCl2, 1 mM DTT, 20% glycerol, 100 mM KCl, phosphatase inhibitors); fractions immunoblotted with anti-COS PTPC; native molecular mass estimated as ~460 kDa
purified protein = substrate: C=C(OP(=O)(O)O)C(=O)O; experiment: purified protein; assay type: biochemical, Sorghum bicolor; details: pH 8.0, 25 °C, 5 mM NaHCO3, 5 mM MgCl2, apparent Km, deubiquitinated enzyme

Molecule | remaining activity at 2000 µM [1] [%] | remaining activity at 2000 µM [3] [%] | remaining activity at 2000 µM [2] [%] | remaining activity at 2000 µM [4] [%] | other results
Nc1ncnc2c1ncn2[C@@H]1O[C@H](COP(=O)(O)OP(=O)(O)OP(=O)(O)O)[C@@H](O)[C@H]1O [ATP] |  |  |  |  | % of control remaining ([1]; 2000 µM): 88%; % of control remaining ([2]; 2000 µM): 111%
N[C@@H](CC(=O)O)C(=O)O [Aspartate] | 91 | 94 | 109 | 109 | 
O=P(O)(O)OC1O[C@H](CO)[C@@H](O)[C@H](O)[C@H]1O (stereo partly shown) [Glc-1-P] | 111 | 115 | 116 | 116 | 
O=P(O)(O)OC[C@H]1OC(O)[C@H](O)[C@@H](O)[C@@H]1O (stereo partly shown) [Glc-6-P] | 112 | 127 | 120 | 121 | 
O=P(O)(O)OCC(O)CO (stereo not shown) [Glycerol-3-P] | 108 | 107 | 120 | 124 | 
O=C(O)C[C@H](O)C(=O)O [L-malate] | 67 | 53 |  |  | IC50 [5]: 3620 ± 240 µM
O=C(O)CC(O)C(=O)O (stereo not shown) [Malate] |  |  | 93 | 93 | 
O=C[C@H](O)[C@H](O)[C@H](O)COP(=O)(O)O [Ribose-5-P] | 98 | 98 | 105 | 105 | 
O=C(O)C[C@H](C(=O)O)[C@@H](O)C(=O)O [isocitrate] | 47 | 47 | 38 | 38 | IC50 [5]: 1370 ± 120 µM
p110, 110 kDa plant-type PEPC (PTPC) subunit encoded by sorghum CP21, monoubiquitinated at Lys624 (from UniProt P29195 1-960) (enzyme) |  |  |  |  | stoichiometry N (subunits in the oligomer) [6]: 4
DeUB-PEPC (in vitro deubiquitinated p107 homotetrameric PEPC of germinating sorghum seeds; CP21) (Sorghum bicolor) (protein, p107 homotetramer; not phosphorylated at Ser7) MPERHQSIDAQLRLLAPGKVSEDDKLVEYDALLVDRFLDILQDLHGPHLREFVQECYELSAEYENDRDEARLGELGSKLTSLPPGDSIVVASSFSHMLNLANLAEEVQVAQRRRIKLKRGDFADEASAPTESDIEETLKRLVSQLGKSREEVFDALKNQTVDLVFTAHPTQSVRRSLLQKHGRIRNCLRQLYAKDITADDKQELDEALQREIQAAFRTDEIRRTPPTPQDEMRAGMSYFHETIWKGVPKFLRRIDTALKNIGINERLPYNAPLIQFSSWMGGDRDGNPRVTPEVTRDVCLLARMMAANLYFSQIEDLMFELSMWRCSDELRIRADELHRSSKRAAKHYIEFWKQVPPNEPYRVILGDVRDKLYYTRERSRHLLSSGISEIPEEATFTNVEQFLEPLELCYRSLCACGDKPIADGSLLDFLRQVFNFGLALVKLDIRQESDRHTDVLDSITTHLGIGSYAEWSEEKRQDWLLSELRGKRPLFGSDLPQTEETADVLGTFHVLAELPADCFGAYIISMATAPSDVLAVELLQRECHVKQPLRVVPLFEKLADLEAAPAAVARLFSIDWYMNRINGKQEVMIGYSDSGKDAGRLSAAWQMYKAQEELIKVAKHYGVKLTMFHGRGGTVGRGGGPTHLAILSQPPDTIHGSLRVTVQGEVIEHSFGEELLCFRTLQRYTAATLEHGMHPPISPKPEWRALMDEMAVVATKEYRSIVFQEPRFVEYFRSATPETEYGRMNIGSRPSKRKPSGGIESLRAIPWIFAWTQTRFHLPVWLGFGAAIKHIMQKDIRNIHVLKEMYNEWPFFRVTLDLLEMVFAKGDPGIAAVYDKLLVAEDLQSFGEQLRKNYEETKELLLQVAGHKDVLEGDPYLKQRLRLRESYITTLNVCQAYTLKRIRDPSFQVSPQPPLSKEFTDESQPVELVQLNQQSEYAPGLEDTLILTMKGIAAGMQNTG |  |  |  |  | Km (purified protein): 36 ± 5 µM
